Molecules are shown by their SMILES.

The test system of the assay is C6/36 Aedes albopictus cell line infected with Wolbachia pipientis (Wolbachia strain wAlbB). The assay can be described thus: In vitro insect cell line assay (anti-Wolbachia screen, SYTO 11 high content imaging). The assay is classed as cell-based. The note with it: 168 h; C6/36 Aedes albopictus cells infected with Wolbachia pipientis wAlbB, 7 days incubation, SYTO 11 imaging; read-out: In vitro anti-Wolbachia activity. Here is the method: A C6/36 Aedes albopictus cell line infected with Wolbachia pipientis (Wolbachia strain wAlbB) derived from Aa23 A. albopictus cell line (O'Neill et al., 1997; Insect Mol Biol; Turner et al., (2006) J. Immunol. 7:1240-1249) was used to screen compounds. Cells were cultured in Leibovitz's L15+L-glutamine supplemented with heat-inactivated Foetal Calf Serum (HI-FCS), non-essential amino acids and tryptose phosphate broth. Culture medium was filter-sterilized through a 0.2 μm filter and stored at 4° C. Compounds were provided as 10 mM stocks in DMSO, diluted to 50 μM working stock to give final concentration of 5 μM on the test plate. Concentrated stocks were frozen at −20° C.
Prior to use in the screening assay, cell cultures were sub-passaged (6 days prior) to provide ˜90% confluent cells on Day 0 of screening assay. On Day 0 (assay set-up), the medium was removed from the stock culture flask and replaced with fresh medium. The cells were detached by scraping and cell density was calculated using an automated cell counter. The cells were then diluted at working density and aliquoted at 90 μl to each well of a Cell Carrier 384 well plate (Perkin Elmer). Cell plates were incubated at 26° C.
Control solution (DMSO-medium) was dispensed at 10 μl per well for “untreated” wells. Test solution (Drug-DMSO) was also dispensed at 10 μl (from working plate) per well for “treated” wells. The plates were incubated at 26° C., inside plastic wallet in incubator, for 7 days.
On Day 7, 25 μl of staining medium/dye (SYTO 11, Life Technologies) was added to each sample well and allowed to stain for 15 minutes in the dark. All the medium was removed from each sample well without disturbing the cells and replaced with 100 μl of fresh medium. Plates were imaged on the Operetta High Content Imaging system (Perkin Elmer) and analyzed using texture analysis through Harmony software (Perkin Elmer). The cell-based screen and analysis are described in detail in Clare et al. (2014) J Biomol Screen.
In the case of `Cc1ccc(Nc2nc(NC(C)C)nc3ccsc23)c(C)c1` [Example 32, N^4-(2,4-dimethylphenyl)-N^2-isopropylthieno[3,2-d]pyrimidine-2,4-diamine], the EC50 was in the range of 1000 to 100000 nM.
The figure for `CN(Cc1ccccc1C(F)(F)F)c1ncnc2ccsc12` [Example 44, N-methyl-N-(2-(trifluoromethyl)benzyl)thieno[3,2-d]pyrimidin-4-amine] is 10 to 100 nM.
Under `CC1COC[C@@H](C)N1c1nc(NCc2cccnc2C(F)(F)F)c2cccnc2n1` (stereo partly drawn) [Example 275, 2-((3R)-3,5-dimethylmorpholino)-N-((2-(trifluoromethyl)pyridin-3-yl)methyl)pyrido[2,3-d]pyrimidin-4-amine] stands 0.01 to 1 nM.
Take `FC1CN(c2nc(NCc3cccnc3C(F)(F)F)c3cccnc3n2)C1` [Example 200, 2-(3-fluoroazetidin-1-yl)-N-((2-(trifluoromethyl)pyridin-3-yl)methyl)pyrido[2,3-d]pyrimidin-4-amine]: the EC50 is 10 to 100 nM.
With `CC(C)Nc1nc(NCc2ccccc2C(F)(F)F)c2sccc2n1` [Example 28, N^2-isopropyl-N^4-(2-(trifluoromethyl)benzyl)thieno[3,2-d]pyrimidine-2,4-diamine], the EC50 is 10 to 100 nM.
Under `FC(F)(F)c1ncccc1CNc1nc(NC2CNC2)nc2ncccc12` [Example 147, N^2-(azetidin-3-yl)-N^4-((2-(trifluoromethyl)pyridin-3-yl)methyl)pyrido[2,3-d]pyrimidine-2,4-diamine] stands 1000 to 100000 nM; under `CNCc1nc(NCc2ccccc2C(F)(F)F)c2cccnc2n1` [Example 145, 2-((methylamino)methyl)-N-(2-(trifluoromethyl)benzyl)pyrido[2,3-d]pyrimidin-4-amine], 1000 to 100000 nM; under `FC(F)(F)c1ccccc1CNc1nc(NCCN2CCOCC2)nc2ccsc12` [Example 90, N^2-(2-morpholinoethyl)-N^4-(2-(trifluoromethyl)benzyl)thieno[3,2-d]pyrimidine-2,4-diamine], 1000 to 100000 nM.
The figure for `FC(F)(F)c1ncccc1CNc1nc(N2CC3CC(C2)O3)nc2ncccc12` [Example 293, 2-(6-oxa-3-azabicyclo[3.1.1]heptan-3-yl)-N-((2-(trifluoromethyl)pyridin-3-yl)methyl)pyrido[2,3-d]pyrimidin-4-amine] is 1 to 10 nM; for `CC(C)Nc1nc(N2CCCCC2c2ccccc2C(F)(F)F)c2cccnc2n1` (stereo not shown) [Example 185, N-isopropyl-4-(2-(2-(trifluoromethyl)phenyl)piperidin-1-yl)pyrido[2,3-d]pyrimidin-2-amine] it is 1000 to 100000 nM; for `COc1ccc(CNc2nc(NC(C)C)nc3ccccc23)cc1OC` [Example 140, N^4-(3,4-dimethoxybenzyl)-N^2-isopropylquinazoline-2,4-diamine] it is 100 to 1000 nM.
As for `CC(C)Nc1nc(NCc2ccc(C#N)cc2)c2sccc2n1` [Example 116, N^4-(4-cyanobenzyl)-N^2-isopropylthieno[3,2-d]pyrimidine-2,4-diamine], the EC50 was 100 to 1000 nM.
For the compound `CC1COCCN1c1nc(NCc2cccnc2C(F)(F)F)c2cncnc2n1` (stereo not shown) [Example 306, 2-(3-methylmorpholino)-N-((2-(trifluoromethyl)pyridin-3-yl)methyl)pyrimido[4,5-d]pyrimidin-4-amine], the EC50 lay in the range of 1000 to 100000 nM.
`FC1(F)CCN(Cc2nc(NCc3cccnc3C(F)(F)F)c3cccnc3n2)C1` [Example 230, 2-((3,3-difluoropyrrolidin-1-yl)methyl)-N-((2-(trifluoromethyl)pyridin-3-yl)methyl)pyrido[2,3-d]pyrimidin-4-amine]: the EC50 was in the range of 1000 to 100000 nM.
For the compound `CC1(C)CN(c2nc(NCc3ccccc3C(F)(F)F)c3cccnc3n2)CCO1` [Example 247, 2-(2,2-dimethylmorpholino)-N-(2-(trifluoromethyl)benzyl)pyrido[2,3-d]pyrimidin-4-amine], the EC50 was less than 0.01 nM.
Under `COc1cc2c(NCc3cccnc3C(F)(F)F)nc(N3CCOCC3C)nc2nc1OC` (stereo not shown) [Example 308, 6,7-dimethoxy-2-(3-methylmorphoIino)-N-((2-(trifluoromethyl)pyridin-3-yl)methyl)pyrido[2,3-d]pyrimidin-4-amine] stands 1000 to 100000 nM.
The figure for `FC(F)(F)c1ccccc1CNc1nc(CN2CCC(Cl)CC2)nc2ncccc12` [Example 222] is 1000 to 100000 nM; for `CC1(O)CN(c2nc(NCc3cccnc3C(F)(F)F)c3cccnc3n2)C1` [Example 171, 3-methyl-1-(4-(((2-(trifluoromethyl)pyridin-3-yl)methyl)amino)pyrido[2,3-d]pyrimidin-2-yl)azetidin-3-ol] it is 100 to 1000 nM; for `O=C(Nc1ncnc2ccsc12)c1ccccc1C(F)(F)F` [Example 37, N-(thieno[3,2-d]pyrimidin-4-yl)-2-(trifluoromethyl)benzamide] it is 1000 to 100000 nM.
Under `COc1ccccc1CNc1nc(NC(C)C)nc2ccsc12` [Example 132, N^2-isopropyl-N^4-(2-methoxybenzyl)thieno[3,2-d]pyrimidine-2,4-diamine] stands 1000 to 100000 nM.
With `FC(F)(F)c1ccccc1C1CCN1c1nc(N2CC(C(F)(F)F)C2)nc2ncccc12` (stereo not shown) [Example 216, 2-(3-(trifluoromethyl)azetidin-1-yl)-4-(2-(2-(trifluoromethyl)phenyl)azetidin-1-yl)pyrido[2,3-d]pyrimidine], the EC50 lay in the range of 100 to 1000 nM.
Under `FC(F)(F)c1ccccc1CNc1nc(N2CCOC3CC32)nc2ncccc12` (stereo not shown) [Example 301, 2-(2-oxa-5-azabicyclo[4.1.0]heptan-5-yl)-N-(2-(trifluoromethyl)benzyl)pyrido[2,3-d)pyrimidin-4-amine] stands 0.01 to 1 nM; under `CC(C)Nc1nc(NC(C)c2ccccc2C(F)(F)F)c2sccc2n1` (stereo not shown) [Example 53, N^2-isopropyl-N^4-(1-(2-(trifluoromethyl)phenyl)ethyl)thieno[3,2-d]pyrimidine-2,4-diamine], 1 to 10 nM; under `C[C@H]1COCCN1c1nc(N2CCC2c2cccnc2C(F)(F)F)c2cccnc2n1` (stereo partly drawn) [Example 289, (3S)-3-methyl-4-(4-(2-(2-(trifluoromethyl)pyridin-3-yl)azetidin-1-yl)pyrido[2,3-d]pyrimidin-2-yl)morpholine], 0.01 to 1 nM.
Regarding `NC(=O)c1nc(NCc2ccccc2C(F)(F)F)c2cccnc2n1` [Example 146, 4-((2-(trifluoromethyl)benzyl)amino)pyrido[2,3-d]pyrimidine-2-carboxamide], the EC50 was 1000 to 100000 nM.
Under `CC(Nc1ncnc2cc(C3CC3)sc12)c1ccccc1C(F)(F)F` (stereo not shown) [Example 99, 6-cyclopropyl-N-(1-(2-(trifluoromethyl)phenyl)ethyl)thieno[3,2-d]pyrimidin-4-amine] stands 1000 to 100000 nM; under `C[C@H]1OCCN(c2nc(NCc3cccnc3C(F)(F)F)c3cccnc3n2)[C@H]1C` [Example 287, 2-((2R,3S)-2,3-dimethylmorpholino)-N-((2-(trifluoromethyl)pyridin-3-yl)methyl)pyrido[2,3-d]pyrimidin-4-amine], 0.01 to 1 nM; under `FC1(F)CCN(c2nc(NCc3ccccc3C(F)(F)F)c3cccnc3n2)CC1` [Example 196, 2-(4,4-difluoropiperidin-1-yl)-N-(2-(trifluoromethyl)benzyl)pyrido[2,3-d]pyrimidin-4-amine], 0.01 to 1 nM.
Take `Fc1ccc(CNc2ncnc3ccccc23)c(C(F)(F)F)c1` [Example 72, N-(4-fluoro-2-(trifluoromethyl)benzyl)quinazolin-4-amine]: the EC50 lay within 10 to 100 nM.
For `C[C@@H]1COCCN1c1nc(N2CCC2c2cccnc2C(F)(F)F)c2cccnc2n1` (stereo partly drawn) [Example 288, (3R)-3-methyl-4-(4-(2-(2-(trifluoromethyl)pyridin-3-yl)azetidin-1-yl)pyrido[2,3-d]pyrimidin-2-yl)morpholine], the EC50 fell in the range of 1 to 10 nM.
Consider `CC1(C#N)CCN(c2nc(NCc3cccnc3C(F)(F)F)c3cccnc3n2)CC1` [Example 250, 4-methyl-1-(4-(((2-(trifluoromethyl)pyridin-3-yl)methyl)amino)pyrido[2,3-d]pyrimidin-2-yl)piperidine-4-carbonitrile], for which the EC50 lay within 0.01 to 1 nM.
For the compound `COc1ccccc1CNc1nc(NCCCN2CCCC2=O)c2sccc2n1` [Example 35, 1-(3-((2-((2-methoxybenzyl)amino)thieno[3,2-d]pyrimidin-4-yl)amino)propyl)pyrrolidin-2-one], the EC50 lay in the range of 100 to 1000 nM.
The figure for `COc1ccc(CNc2nc(NC(C)C)nc3ccccc23)cc1` [Example 138, N^2-isopropyl-N^4-(4-methoxybenzyl)quinazoline-2,4-diamine] is 1000 to 100000 nM.
Under `CC1(C)CCN(c2nc(NCc3cccnc3C(F)(F)F)c3cccnc3n2)CC1` [Example 233, 2-(4,4-dimethyipiperidin-1-yl)-N-((2-(trifluoromethyl)pyridin-3-yl)methyl)pyrido[2,3-d]pyrimidin-4-amine] stands 10 to 100 nM.

(Values after patent US11518760B2 (Liverpool School of Tropical Medicine, priority 2017, dated 2022).)
